The structures appear in SMILES notation. Values joined by “and” are separate entries in the source; they are usually repeats but may differ in a detail not shown here. Equal entries are not always repeated. Active and inactive are the calls of the source. The rule behind the calls is not given here.

In this assay the test system is in vivo angiogenesis, blood vessel count. As to the kind of experiment: reduction of blood vessel formation in vivo – HTS, in vivo study (AID 732).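 Note: zebrafish embryos dosed at one day post fertilization; 0% = reference inhibitor and 100% = plate mean.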 To be noted: active compounds read low;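 tested at 30 µM in the well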.
For the molecule `CC(=O)Oc1ccccc1C(=O)O`, the vessel count % control is 105% (inactive). Consider `C[N+](C)(C)CCO`, for which the vessel count % control was 96.9% (inactive). As for `O=C(O)C1=CCNCC1`, the vessel count % control was 131% (inactive).

Turning to `C[C@H](Cc1ccc(O)c(O)c1)[C@@H](C)Cc1ccc(O)c(O)c1`, the vessel count % control is 124% (inactive). Regarding `COc1cc2c(CCNC(C)=O)c[nH]c2cc1O`, the vessel count % control is 105% (inactive). The result for `COC(=O)Nc1nc2ccc(C(=O)c3cccs3)cc2[nH]1` reads 150% (inactive); that for `Clc1ccc2c(c1)C(N1CCNCC1)=Nc1ccccc1O2`, 98.2% (inactive); that for `COc1c2c(nc3ccccc13)OC(C(C)(O)CO)C2` (stereo not drawn), 120% (inactive). With `Nc1nc(N)c2nc(-c3ccccc3)c(N)nc2n1`, the vessel count % control is 109% (inactive). The result for `CC(C)C(=O)Nc1ccc([N+](=O)[O-])c(C(F)(F)F)c1` reads 113% (inactive); that for `NC[C@@H]1O[C@H](C23CC4CC(CC(C4)C2)C3)Cc2c1ccc(O)c2O`, 110% (inactive).

`N=C(N)SCCN`: the vessel count % control is 110% (inactive). Take `C[C@@H](N)Cc1cnc[nH]1`: the vessel count % control was 97.8% (inactive). With `NCCS`, the vessel count % control is 106% (inactive). The result for `O=C(O)CNC(=O)C(CS)Cc1ccccc1` (stereo not drawn) reads 117% (inactive); that for `CN1[C@@H](CC(=O)c2ccccc2)CCC[C@H]1C[C@H](O)c1ccccc1`, 107% (inactive); that for `NC1CC1c1ccccc1` (stereo not drawn), 94.1% (inactive).

With `O=C1C(c2c(O)[nH]c3ccc(F)cc23)=Nc2ccccc21`, the vessel count % control is 59% (inactive). Regarding `COc1ccc(CCN)cc1O`, the vessel count % control was 108% (inactive). `O=C1C(c2c(O)[nH]c3c(Cl)ccc(Cl)c23)=Nc2ccc(Br)cc21`: the vessel count % control was 121% (inactive). As for `CP(=O)(O)C1=CCNCC1`, the vessel count % control is 116% (inactive). The result for `O=C(O)Cc1ccc(O)c(O)c1` reads 107% (inactive); that for `CC(C)NCC(O)COc1ccc(CCOCC2CC2)cc1` (stereo not drawn), 94.3% (inactive); that for `CN(C)CCCN1c2ccccc2Sc2ccccc21`, 93.7% (inactive).

As to `Brc1ccc([C@H]2CN3CCSC3=N2)cc1`, the vessel count % control was 94.7% (inactive). Regarding `Nc1ncnc2c1c(-c1ccc(Oc3ccccc3)cc1)cn2C1CCCC1`, the vessel count % control was 77.9% (inactive). For the molecule `CC12CCC3C(CCC4=C(O)C(=O)CCC43C)C1CCC2=O` (stereo not drawn), the vessel count % control was 109% (inactive). Consider `N=c1ccn2c(n1)OC1[C@@H](O)[C@@H](CO)O[C@H]12` (stereo partly drawn), for which the vessel count % control was 78.4% (inactive). Turning to `Cn1cnc2c(NCc3ccccc3)nc(NCCO)nc21`, the vessel count % control was 98.8% (inactive). As for `N#C/C(=C\c1ccc(O)c(O)c1)C(=O)NCCCNC(=O)/C(C#N)=C/c1ccc(O)c(O)c1`, the vessel count % control is 118% (inactive). As for `O=c1[nH]c2ccccc2c2ccccc12`, the vessel count % control is 103% (inactive). Take `CC(C)(C=O)Cc1cc(C(C)(C)C)c(O)c(C(C)(C)C)c1`: the vessel count % control is 98.1% (inactive). As for `Nc1nc2c(ncn2COC(CO)CO)c(=O)[nH]1`, the vessel count % control was 84.5% (inactive). For the molecule `CN1CCc2c(cc(O)c(O)c2Cl)C(c2cccc(Cl)c2)C1` (stereo not drawn), the vessel count % control was 118% (inactive). Regarding `NCC(O)C1CCCCCCC1` (stereo not drawn), the vessel count % control is 95.9% (inactive). On to `O=[N+]([O-])c1ccc(CSc2ncnc3c2ncn3[C@@H]2O[C@H](CO)[C@H](O)C2O)cc1` (stereo partly drawn), for which the vessel count % control was 80.2% (inactive).

Turning to `NCC(CC(=O)O)c1ccc(Cl)cc1` (stereo not drawn), the vessel count % control is 100% (inactive). Then `COc1cc(CC(C)N)c(OC)cc1I` (stereo not drawn), with 79.5% (inactive).

Consider `Nc1nc(Cl)nc2c1ncn2[C@@H]1O[C@H](COP(=O)(O)OP(=O)(O)OP(=O)(O)O)[C@H](O)C1O` (stereo partly drawn), for which the vessel count % control is 107% (inactive). With `N#CC(C#N)=Cc1cc(O)c(O)c(O)c1`, the vessel count % control was 107% (inactive).

On to `CC1CCN(CC[C@H]2CCCN2S(=O)(=O)c2cccc(O)c2)CC1`, for which the vessel count % control is 95.5% (inactive). For the molecule `O=C1OC(=O)C2C3CCC(O3)C12` (stereo not drawn), the vessel count % control is 111% (inactive). For `OCCN1CCN(CCCN2c3ccccc3Sc3ccc(C(F)(F)F)cc32)CC1`, the vessel count % control was 116% (inactive).

Take `CN(C)CCCO[C@@H]1[C@H]2OC(C)(C)O[C@H]2O[C@@H]1C(O)CO` (stereo partly drawn): the vessel count % control is 88% (inactive). Consider `CO/N=C(\C(=O)N[C@@H]1C(=O)N2C(C(=O)O)=C(CSc3nc(=O)c(O)nn3C)CSC12)c1csc(N)n1` (stereo partly drawn), for which the vessel count % control was 117% (inactive). On to `O=c1[nH]c2ccccc2n1CCCN1CCN(C(c2ccccc2)c2ccccc2)CC1`, for which the vessel count % control is 120% (inactive). Then `O=C1CCCN1CC#CCN1CCCC1`, with 99.6% (inactive); and `O=C1NC(O)=NC1(c1ccccc1)c1ccccc1`, with 106% (inactive). In the case of `C[N+](C)(C)CCOC(N)=O`, the vessel count % control was 114% (inactive). As to `CNCCc1c[nH]c2ccc(O)cc12`, the vessel count % control is 101% (inactive).

Take `CCCN1CCC[C@@H](c2cccc(C#N)c2)C1`: the vessel count % control was 103% (inactive). Take `NC/C=C\C(=O)O`: the vessel count % control is 111% (inactive). Regarding `C=CCN1CC[C@]23CCCCC2[C@H]1Cc1ccc(O)cc13` (stereo partly drawn), the vessel count % control is 141% (inactive). The result for `CC(C)NC[C@@H](O)c1ccc(O)c(O)c1` reads 108% (inactive). As for `O=[N+]([O-])c1ccc(O[C@@H]2O[C@H](CO)[C@@H](O)[C@H](O)[C@H]2F)c([N+](=O)[O-])c1`, the vessel count % control is 99.2% (inactive). `NCCS(=O)O`: the vessel count % control was 107% (inactive). Consider `Cc1nc(N=Nc2cc(S(=O)(=O)O)c3cc([N+](=O)[O-])cc(S(=O)(=O)O)c3c2)c(COP(=O)(O)O)c(C=O)c1O`, for which the vessel count % control is 93.5% (inactive). For `NCCc1cnc[nH]1`, the vessel count % control was 93.3% (inactive). Consider `C[C@@H](NC(=O)/C(C#N)=C/c1ccc(O)c(O)c1)c1ccccc1`, for which the vessel count % control is 128% (inactive). For `O=C1CCc2cc(OCCCCc3nnnn3C3CCCCC3)ccc2N1`, the vessel count % control was 124% (inactive). For `O=C(NCC1CCCCN1)c1cc(OCC(F)(F)F)ccc1OCC(F)(F)F` (stereo not drawn), the vessel count % control is 127% (inactive). Then `O=c1[nH]c2cc(C(F)(F)F)ccc2n1-c1cc(C(F)(F)F)ccc1O`, with 91.2% (inactive); and `CC(=O)NCCc1c[nH]c2ccc(O)cc12`, with 101% (inactive). In the case of `O=C(O)CCC(NC(=O)c1ccccc1C(=O)O)C(=O)O` (stereo not drawn), the vessel count % control was 103% (inactive). Then `Cc1ccccc1N1CCN(S(=O)(=O)C[C@]23CCC(CC2NC(=O)[C@@H](N)CCS(C)(=O)=O)C3(C)C)CC1` (stereo partly drawn), with 107% (inactive); and `O=C(O)[C@H]1NCCC[C@H]1C(=O)O`, with 121% (inactive). The result for `c1ccc(C2CN3CCSC3=N2)cc1` (stereo not drawn) reads 95.6% (inactive).

On to `CC(N)c1cccc(Cl)c1Cl` (stereo not drawn), for which the vessel count % control was 89.7% (inactive).

As to `N#C/C(=C\c1ccc(O)c(O)c1)C(=O)NCCc1ccccc1`, the vessel count % control is 115% (inactive).

Take `NC1(C(=O)O)CCCCC1`: the vessel count % control is 110% (inactive). In the case of `C1CCc2nnnn2CC1`, the vessel count % control is 79% (inactive). The result for `NC(=O)c1cnccn1` reads 76.5% (inactive). Consider `N=S(=O)(O)Cc1noc2ccccc12`, for which the vessel count % control is 88.2% (inactive). With `O=c1c2ccccc2[se]n1-c1ccccc1`, the vessel count % control was 94.8% (inactive).

Regarding `O=C1N=C(O)CN1/N=C/c1ccc(-c2ccc([N+](=O)[O-])cc2)o1`, the vessel count % control was 90.4% (inactive). On to `NC(Cn1oc(=O)[nH]c1=O)C(=O)O` (stereo not drawn), for which the vessel count % control was 129% (inactive).

In the case of `C[C@]12CCC(=O)C=C1CC[C@@H]1[C@@H]2CC[C@@]2(C)[C@H]1CC[C@]2(O)C(=O)CO`, the vessel count % control is 106% (inactive).

`CC1CNCCN1S(=O)(=O)c1cccc2cnccc12` (stereo not drawn): the vessel count % control is 97.5% (inactive) and 98.4% (inactive).

Take `NN=C(N)N`: the vessel count % control was 92.2% (inactive) and 80.5% (inactive). Then `CN(C)CCC(c1ccccc1)c1ccccn1` (stereo not drawn), with 109% (inactive); and `CCCC(CCC)C(=O)O`, with 89.7% (inactive); and `CN=C(NC#N)Nc1ccc(C2=NNC(=O)CC2C)cc1` (stereo not drawn), with 106% (inactive). Then `Cc1cccc(C)c1OCC(C)N` (stereo not drawn), with 99.4% (inactive); and `CCCC(C)(COC(N)=O)COC(=O)NC(C)C` (stereo not drawn), with 103% (inactive); and `NC(=O)c1ncn([C@@H]2O[C@H](CO)[C@@H](O)[C@H]2O)n1`, with 63.2% (inactive). `CC1(C)C(=O)N(CCN2CCC(C(=O)c3ccc(F)cc3)CC2)c2ccccc21`: the vessel count % control was 118% (inactive). Regarding `O=c1c(O)c(-c2ccc(O)c(O)c2)oc2cc(O)cc(O)c12`, the vessel count % control was 115% (inactive). With `O=C1C(c2c(O)[nH]c3ccc(Cl)cc23)=Nc2ccccc21`, the vessel count % control was 87.6% (inactive). Take `CCC1(C2=NCCN2)Cc2ccccc2O1` (stereo not drawn): the vessel count % control is 68.5% (inactive). As for `Cc1cn[nH]c1`, the vessel count % control is 87.3% (inactive).

For the molecule `NC(Cc1cc(O)c(O)cc1O)C(=O)O` (stereo not drawn), the vessel count % control was 88.2% (inactive). Then `CC(=O)OCC1=C(C(=O)[O-])N2C(=O)[C@@H](NC(=O)CCC[C@@H](N)C(=O)[O-])[C@H]2SC1.[Zn+2]`, with 106% (inactive); and `C[C@]12CCC(=O)C=C1CC[C@@H]1[C@@H]2[C@@H](O)C[C@@]2(C)[C@H]1CC[C@]2(O)C(=O)COC(=O)CCC(=O)O`, with 98.7% (inactive).

(Values after PubChem BioAssay AID732 (Emory University Molecular Libraries Screening Center, 2007).)
